# Assays:
# ABCA1 mRNA = assay: Intestinal mucosa ABCA1 mRNA by quantitative PCR in treated mice; assay type: in vivo; details: daily oral 7 days
# Experimental: The LXR pan-agonist-dependent inhibition of cholesterol absorption is believed to result from the ability of LXRs to induce the expression of ATP binding cassette transporters such as ABCA1 in the intestine. To examine the contributions of LXRα and LXRβ to intestinal gene expression and dietary cholesterol absorption, Compound 1 was administered to wildtype, LXRα−/−, LXRβ−/− and LXRαβ−/− mice for seven days by daily oral gavage in a sesame oil/ethanol vehicle via a 1 cc syringe fitted with a 20G disposable feeding needle. Compound was solvated in ethanol (5% final volume) and brought up to final volume with sesame oil (Sigma, St. Louis, Mo.). Three hours after the final dose (day 7) animals were sacrificed, intestines were harvested, and intestinal enterocytes were isolated by gently scraping the mucosa layer away from the rest of the tissue. Total intestinal mucosa RNA was isolated using RNeasy kits (QIAGEN Inc.) according to the supplier's total RNA isolation procedure. The RNA samples were further treated with deoxyribonuclease I to eliminate contaminating genomic DNA. ABCA1 mRNA levels were than analyzed by real-time based quantitative PCR using Perkin Elmer ABI Prism 7700 and Sequence Detection System software (Perkin Elmer). […] No induction is observed in LXRαβ−/− mice. Thus either LXRα or LXRβ alone is sufficient to induce ABCA1 in the intestine and inhibit the absorption of dietary cholesterol.
# CYP7a mRNA = assay: Liver CYP7a mRNA by quantitative PCR in treated mice; assay type: in vivo; details: for CYP7a mRNA induction: daily oral 7 days
# Description: The CYP7a gene encodes cholesterol 7α-hydroxylase, the rate-limiting enzyme in the catabolic conversion of cholesterol to bile acids. Increases in CYP7a activity stimulate the conversion of cholesterol to bile acids and may reduce plasma cholesterol levels by depleting hepatocytes of cholesterol. Intracellular cholesterol depletion should stimulate the uptake of LDL particles from the plasma by liver hepatocytes. To determine the contribution of LXRα and LXRβ to the induction of CYP7a by LXR agonists, Compound 1 was administered for seven days by daily oral gavage in a sesame oil/ethanol vehicle via a 1-cc syringe fitted with a 20G disposable feeding needle. Compound was solvated in ethanol (5% final volume) and brought up to final volume with sesame oil (Sigma, St. Louis, Mo.). Three hours after the final dose (day 7) animals were sacrificed, livers were harvested, and total liver RNA was isolated using RNeasy kits (QIAGEN Inc.) according to the supplier's total RNA isolation procedure. The RNA samples were further treated with deoxyribonuclease 1 to eliminate contaminating genomic DNA. CYP7a mRNA levels were than analyzed by real-time based quantitative PCR using Perkin Elmer ABI Prism 7700 and Sequence Detection System software (Perkin Elmer). […] As expected no induction is observed in LXRαβ−/− mice.
# peritoneal macrophages = assay: ApoA1-dependent cholesterol efflux assay (reverse cholesterol transport) in peritoneal macrophages; assay type: cell-based, mice; details: 1.0 μM
# Description: The individual contributions of both receptors to macrophage gene expression were examined by first measuring the amount of mRNA encoding LXRα and LXRβ in thioglycolate-elicited peritoneal macrophages obtained from mixed wildtype mice. Thioglycolate-elicited peritoneal macrophages were isolated from mice 4 days after peritoneal injection of thioglycolate media. Peritoneal macrophages were harvested by lavage of the peritoneum with phosphate buffered saline (PBS), cells were washed, transferred to 60 mm culture plates and incubated at 37° C. in RPMI 1640 media (Life Technologies) containing 10% FBS, 2 mmol/L glutamine, 100 μg/mL streptomycin and 100 IU penicillin (Life Technologies). After 5 hours at 37° C., cells were washed 5 times with PBS to remove non-adherent cells and adherent cells were further incubated in RPMI 1640 media supplemented with 10% FBS for 24 hours. To determine the mRNA levels of LXRα and LXRβ, after 24 hours total RNA was isolated from cultured macrophages using RNeasy kits (QIAGEN Inc.) according to the supplier's total RNA isolation procedure. The RNA samples were further treated with deoxyribonuclease I to eliminate contaminating genomic DNA. LXRα and LXRβ mRNA levels were than analyzed by real-time based quantitative PCR using Perkin Elmer ABI Prism 7700 and Sequence Detection System software (Perkin Elmer). […] Since ABCA1 is involved in mediating reverse cholesterol transport, peritoneal macrophages isolated as described above and cultured for 24 hours in the absence or presence of LXR agonist (1.0 μM Compound 1) were examined in a cholesterol efflux assay which measures reverse cholesterol transport in vitro. Mouse peritoneal macrophages isolated as described above from wildtype (mixed and C57BL/6), LXRα−/− (C57BL/6), LXRβ−/−, and LXRαβ−/− mice were cultured in 96 well plates (5×10^4 cells/well) at 37° C. After 24 hours, cells were labeled for 48 hours with 0.2 μCi/ml ^14C-cholesterol in RPMI 1640 medium with 1% FBS. Following the labeling period, ^14C-cholesterol was removed and the cells were cultured for 24 hours in serum free RPMI 1640 media in the presence or absence of 10 μg/ml apolipoprotein A (ApoA1). In this assay ApoA1 acts as a cholesterol acceptor and mimics the cholesterol-accepting function performed by HDL particles in vivo. Following this incubation, the media is removed, cells are washed and than lysed with 0.2 M sodium hydroxide. To determine ApoA1-dependent cholesterol efflux, the amount of ^14C-cholesterol present in the media is divided by the total counts (media+cell lysate) and the value determined in the absence of ApoA is subtracted from the value determined in the presence of ApoA. […] No effect is observed upon elimination of LXRα alone.
# LXRα = biological target: T1, LXRα (Homo sapiens, UniProt Q13133); details: stated as considered, no test described; cited from earlier work
# T1 sequence (Q13133 1-447): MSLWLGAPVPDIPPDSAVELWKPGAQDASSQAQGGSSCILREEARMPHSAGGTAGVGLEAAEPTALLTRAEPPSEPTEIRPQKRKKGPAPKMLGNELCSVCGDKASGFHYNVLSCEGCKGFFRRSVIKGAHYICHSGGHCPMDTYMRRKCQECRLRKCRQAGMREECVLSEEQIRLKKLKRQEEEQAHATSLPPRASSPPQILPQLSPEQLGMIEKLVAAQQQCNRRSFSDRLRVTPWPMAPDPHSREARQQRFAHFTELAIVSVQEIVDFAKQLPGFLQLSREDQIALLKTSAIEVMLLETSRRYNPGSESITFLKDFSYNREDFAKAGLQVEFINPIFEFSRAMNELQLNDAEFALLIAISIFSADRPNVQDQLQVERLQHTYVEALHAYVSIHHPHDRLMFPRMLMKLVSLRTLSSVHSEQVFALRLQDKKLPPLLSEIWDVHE
smiles,measurement,setting,value
"O=S(=O)(c1ccccc1)N(CC(F)(F)F)c1ccc(C(O)(C(F)(F)F)C(F)(F)F)cc1 [Compound 1, N-(2,2,2-trifluoroethyl)-N-[4-(2,2,2-trifluoro-1-hydroxy-1-trifluoromethylethyl)-phenyl]-benzene sulfonamide]",ABCA1 mRNA induction in the intestine,ABCA1 mRNA; LXRαβ−/− mice,No induction
same,ABCA1 mRNA fold induction in the intestine,"ABCA1 mRNA; LXRα−/− mice, depending on the strain",7-14 fold
same,ABCA1 mRNA fold induction in the intestine,ABCA1 mRNA; LXRβ−/− mice,9 fold
same,ABCA1 mRNA fold induction in the intestine,"ABCA1 mRNA; wildtype mice, depending on the strain",14-29 fold
same,CYP7a mRNA induction,CYP7a mRNA; LXRαβ−/− mice,no induction
same,CYP7a mRNA induction,CYP7a mRNA; LXRα−/− mice,can induce transcription of the CYP7a gene
same,CYP7a induction level relative to wildtype agonist-treated mice,CYP7a mRNA; LXRβ alone (LXRα−/− mice),20%-50%
same,CYP7a mRNA induction,CYP7a mRNA; LXRβ−/− mice,can induce transcription of the CYP7a gene
same,CYP7a mRNA induction,CYP7a mRNA; wildtype mice,can induce transcription of the CYP7a gene
same,reverse cholesterol transport (cholesterol efflux),peritoneal macrophages; LXRαβ−/− macrophages,further reduced
same,reverse cholesterol transport (cholesterol efflux),peritoneal macrophages; LXRα−/− (C57BL/6) macrophages,No effect
same,reverse cholesterol transport (cholesterol efflux),peritoneal macrophages; LXRβ−/− macrophages,significantly reduced
same,reverse cholesterol transport (cholesterol efflux),peritoneal macrophages; wildtype (mixed and C57BL/6) macrophages,stimulates reverse cholesterol transport
same,binding and activation of LXRα,LXRα,binds and activates both LXRα and LXRβ with similar potency and efficacy

# From patent US6924311B2, “Methods for affecting various diseases utilizing LXR compounds” (X-Ceptor Therapeutics, Inc., priority 2001, dated 2005)
